Measurements published in ChEMBL document CHEMBL5303573, “Mapping human microbiome drug metabolism by gut bacteria and their genes” (Nature, 2019).

How the values were obtained:
[1] = bacteroides thetaiotaomicron, 12 h, 2 µM
Description: The drug is tested on Bacteroides thetaiotaomicron strain: VPI-5482 for biotransformation. The drug concentrations were measured before and after a 12-h incubation by liquid-chromatography-coupled mass spectrometry (LC–MS)

[2] = akkermansia muciniphila, 12 h, 2 µM
Description: The drug is tested on Akkermansia muciniphila strain: ATCC BAA-835 for biotransformation. The drug concentrations were measured before and after a 12-h incubation by liquid-chromatography-coupled mass spectrometry (LC–MS)

[3] = The drug is tested on Blautia luti strain: DSM14534 for biotransformation. The drug concentrations were measured before and after a 12-h incubation by liquid-chromatography-coupled mass spectrometry (LC–MS); type: ADME; parameters: dose 2 uM, timepoint 0 vs 12 hours; conditions: 2 µM
[4] = The drug is tested on Bifidobacterium breve strain: DSM20213 for biotransformation. The drug concentrations were measured before and after a 12-h incubation by liquid-chromatography-coupled mass spectrometry (LC–MS); conditions: 2 µM
[5] = bacteroides eggerthii, 12 h, 2 µM
Description: The drug is tested on Bacteroides eggerthii strain: DSM20697 for biotransformation. The drug concentrations were measured before and after a 12-h incubation by liquid-chromatography-coupled mass spectrometry (LC–MS)

[6] = The drug is tested on Bacteroides vulgatus strain: ATCC8482 for biotransformation. The drug concentrations were measured before and after a 12-h incubation by liquid-chromatography-coupled mass spectrometry (LC–MS); conditions: phocaeicola vulgatus, 2 µM
[7] = The drug is tested on Clostridium asparagiforme strain: DSM15981 for biotransformation. The drug concentrations were measured before and after a 12-h incubation by liquid-chromatography-coupled mass spectrometry (LC–MS); type: ADME; parameters: dose 2 uM, timepoint 0 vs 12 hours; conditions: enterocloster asparagiformis, 2 µM
[8] = segatella copri, 12 h, 2 µM
Description: The drug is tested on Prevotella copri strain: DSM18205 for biotransformation. The drug concentrations were measured before and after a 12-h incubation by liquid-chromatography-coupled mass spectrometry (LC–MS)

[9] = The drug is tested on Bacteroides fragilis strain: HMW610 for biotransformation. The drug concentrations were measured before and after a 12-h incubation by liquid-chromatography-coupled mass spectrometry (LC–MS); conditions: 2 µM
[10] = victivallis vadensis, 12 h, 2 µM
Description: The drug is tested on Victivallis vadensis strain: ATCC BAA-548 for biotransformation. The drug concentrations were measured before and after a 12-h incubation by liquid-chromatography-coupled mass spectrometry (LC–MS)

[11] = The drug is tested on Subdoligranulum variabile strain: DSM15176 for biotransformation. The drug concentrations were measured before and after a 12-h incubation by liquid-chromatography-coupled mass spectrometry (LC–MS); conditions: 2 µM
[12] = The drug is tested on Bacteroides sp. WH2 strain: WH2 for biotransformation. The drug concentrations were measured before and after a 12-h incubation by liquid-chromatography-coupled mass spectrometry (LC–MS); conditions: bacteroides sp. wh2, 12 h, 2 µM
[13] = The drug is tested on Dorea formicigenerans strain: ATCC27755 for biotransformation. The drug concentrations were measured before and after a 12-h incubation by liquid-chromatography-coupled mass spectrometry (LC–MS); conditions: 2 µM
[14] = bacteroides thetaiotaomicron, 12 h, 2 µM; remark: listed apart in the source
Description: The drug is tested on Bacteroides thetaiotaomicron strain: 7330 for biotransformation. The drug concentrations were measured before and after a 12-h incubation by liquid-chromatography-coupled mass spectrometry (LC–MS)

[15] = The drug is tested on Escherichia coli strain: BW25113 for biotransformation. The drug concentrations were measured before and after a 12-h incubation by liquid-chromatography-coupled mass spectrometry (LC–MS); conditions: 2 µM
[16] = The drug is tested on Collinsella intestinalis strain: DSM13280 for biotransformation. The drug concentrations were measured before and after a 12-h incubation by liquid-chromatography-coupled mass spectrometry (LC–MS); conditions: 2 µM
[17] = roseburia intestinalis, 12 h, 2 µM
Description: The drug is tested on Roseburia intestinalis strain: L1-82 for biotransformation. The drug concentrations were measured before and after a 12-h incubation by liquid-chromatography-coupled mass spectrometry (LC–MS)

[18] = The drug is tested on Blautia hansenii strain: DSM20583 for biotransformation. The drug concentrations were measured before and after a 12-h incubation by liquid-chromatography-coupled mass spectrometry (LC–MS); conditions: 2 µM
[19] = The drug is tested on Eubacterium ventriosum strain: ATCC27560 for biotransformation. The drug concentrations were measured before and after a 12-h incubation by liquid-chromatography-coupled mass spectrometry (LC–MS); type: ADME; parameters: dose 2 uM, timepoint 0 vs 12 hours; conditions: 2 µM
[20] = The drug is tested on Bacteroides cellulosilyticus strain: DSM14838 for biotransformation. The drug concentrations were measured before and after a 12-h incubation by liquid-chromatography-coupled mass spectrometry (LC–MS); conditions: 2 µM

Measured: Bacterial Biotransformation

CC(C)C[C@H]1C(=O)N2CCC[C@H]2[C@]2(O)O[C@](NC(=O)[C@@H]3C=C4c5cccc6[nH]c(Br)c(c56)C[C@H]4N(C)C3)(C(C)C)C(=O)N12.CS(=O)(=O)O [BROMOCRIPTINE MESYLATE]
Compound metabolized: all assays above
